Where a name gives a salt, the structure may show the parent alone. Read-outs that look alike come from different tables or passages of the source.
What was measured:
Format in all cases: biochemical
E. coli DNA gyrase = target: T1, E. coli DNA gyrase (Escherichia coli, UniProt P0AES4+P0AES6); experiment: DNA gyrase supercoiling assay (E. coli); settings: for inhibition at 50 µM: E. coli, conc. 50 μM, n/a = not active
T1 construct: purchased Inspiralis, UK
Method: (§1) The above compounds were tested for the inhibition of the enzyme DNA gyrase in a gyrase supercoiling assay and for the inhibition of the enzyme topoisomerase IV in a decatenation assay, in both Gram positive and Gram negative bacteria, according to the following methods.
(§2) Both the assays were carried out according to a set-up method modified from the article to Blanche F, et al. “Differential Behaviors of Staphylococcus aureus and Escherichia coli Type II DNA Topoisomerases”, Antimicrob. Agents Chemother., 1996, Vol. 40, No. 12 p. 2714-2720.
(§3) The compounds were screened at single concentration (200, 100 or 50 μM), in duplicate.
(§4) Reagents from S. aureus and E. coli Gyrase Supercoiling Assay kits (Inspiralis, UK) were used. A master mix with a total volume sufficient for the number of reactions to perform was prepared with the following reagents: 5× assay buffer, relaxed pBR322 substrate (0.5 μg/reaction), RNase-DNase free water. Aliquotes of this mix were dispensed in each tube, then 10× compound stock solutions or vehicle control (DMSO), were added to each reaction tube.
(§5) Reaction was started with E. Coli (2 U/reaction) or S. aureus (1 U/reaction) gyrase enzyme addition.
(§6) A sample added with an equal volume of dilution buffer was used as negative control (without enzyme).
(§7) The reaction tubes were gentle vortexed and incubated 30 minutes at 37° C. Each reaction was stopped by adding 30 μl of Stop Buffer and 30 μl chloroform/isoamyl alcohol (24/1), briefly vortexed for 5-10 seconds and centrifuged at 20000×g for 2 minutes. Samples were loaded onto 1% agarose gel and subjected to electrophoresis for 1 hour at 80V constant voltage in TAE (40 mM Tris-acetate, 2 mM EDTA).
(§8) Data acquisition and analysis. Treatment of relaxed pBR322 with DNA gyrase converted the relaxed topoisomers (DNAs of different linking number) to the supercoiled form of the plasmid, which migrates faster on an agarose gel. An upper band might also be visible, which consists of open-circular (nicked) DNA which is present in the relaxed substrate but co-migrates with some of the relaxed topoisomers.
(§9) Bands were visualized by ethidium bromide staining (dilution 1:20000) for 30 minutes followed by destaining in distilled water for 10 minutes.
(§10) In order to evaluate the compounds activity on the enzyme, the bands of supercoiled DNAs in the gel were photographed by a digital imaging system ImageQuant LAS 4000 (GE Healthcare) according to manufacturer's instructions.
(§11) The fluorescent intensity of each band was analyzed by ImageQuant TL software and it was expressed as volume (volume of the uncalibrated quantity of material in the image feature after subtraction of the background intensity by using rolling ball method).
(§12) Each band intensity was compared, as percentage, to vehicle sample band intensity, which served as positive control, on the same gel.
(§13) Inhibitory activity was expressed as percent of inhibition versus the positive control.
(§14) The supercoiled or decatenated DNA bands obtained as described in Example 1 were analysed as follows.
(§15) Bands were analyzed by gel documentation equipment (Syngene, Cambridge, UK) and quantitated using Syngene Gene Tools software. Raw gel data (fluorescent band volumes) collected from Syngene, GeneTools gel analysis software were converted to a percentage of the 100% control (the fully supercoiled or decatenated DNA band). […] The IC50 data were calculated by using the global curve fit non-linear regression tool by selecting the Single, 2 Parameter fit function from the Exponential Decay equation category.

E. coli Topoisomerase IV = target: T2, E. coli Topoisomerase IV (Escherichia coli, UniProt P0AFI2+P20083); experiment: Topoisomerase IV decatenation assay (E. coli); settings: for inhibition at 50 µM: E. coli, conc. 50 μM, n/a = not active, read-out: % inhibition Topo IV
T2 construct: purchased Inspiralis, UK
T2 sequence (P20083 whole entry): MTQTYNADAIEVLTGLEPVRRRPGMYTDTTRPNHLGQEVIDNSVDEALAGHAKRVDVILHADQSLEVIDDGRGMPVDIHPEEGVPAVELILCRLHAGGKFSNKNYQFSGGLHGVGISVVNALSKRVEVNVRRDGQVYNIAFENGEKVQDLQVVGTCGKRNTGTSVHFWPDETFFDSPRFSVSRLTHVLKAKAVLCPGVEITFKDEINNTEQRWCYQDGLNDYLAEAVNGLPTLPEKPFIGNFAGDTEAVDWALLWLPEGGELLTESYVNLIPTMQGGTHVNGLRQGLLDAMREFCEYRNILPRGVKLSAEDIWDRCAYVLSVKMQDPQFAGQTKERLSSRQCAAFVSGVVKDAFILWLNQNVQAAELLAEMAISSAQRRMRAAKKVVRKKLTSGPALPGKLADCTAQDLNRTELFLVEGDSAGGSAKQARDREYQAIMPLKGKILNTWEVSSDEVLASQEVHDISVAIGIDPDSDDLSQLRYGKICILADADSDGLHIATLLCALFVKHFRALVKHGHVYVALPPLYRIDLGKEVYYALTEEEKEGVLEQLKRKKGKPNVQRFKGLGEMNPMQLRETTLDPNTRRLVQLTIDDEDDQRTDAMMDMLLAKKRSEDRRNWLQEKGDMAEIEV
T2 sequence (P0AFI2 whole entry): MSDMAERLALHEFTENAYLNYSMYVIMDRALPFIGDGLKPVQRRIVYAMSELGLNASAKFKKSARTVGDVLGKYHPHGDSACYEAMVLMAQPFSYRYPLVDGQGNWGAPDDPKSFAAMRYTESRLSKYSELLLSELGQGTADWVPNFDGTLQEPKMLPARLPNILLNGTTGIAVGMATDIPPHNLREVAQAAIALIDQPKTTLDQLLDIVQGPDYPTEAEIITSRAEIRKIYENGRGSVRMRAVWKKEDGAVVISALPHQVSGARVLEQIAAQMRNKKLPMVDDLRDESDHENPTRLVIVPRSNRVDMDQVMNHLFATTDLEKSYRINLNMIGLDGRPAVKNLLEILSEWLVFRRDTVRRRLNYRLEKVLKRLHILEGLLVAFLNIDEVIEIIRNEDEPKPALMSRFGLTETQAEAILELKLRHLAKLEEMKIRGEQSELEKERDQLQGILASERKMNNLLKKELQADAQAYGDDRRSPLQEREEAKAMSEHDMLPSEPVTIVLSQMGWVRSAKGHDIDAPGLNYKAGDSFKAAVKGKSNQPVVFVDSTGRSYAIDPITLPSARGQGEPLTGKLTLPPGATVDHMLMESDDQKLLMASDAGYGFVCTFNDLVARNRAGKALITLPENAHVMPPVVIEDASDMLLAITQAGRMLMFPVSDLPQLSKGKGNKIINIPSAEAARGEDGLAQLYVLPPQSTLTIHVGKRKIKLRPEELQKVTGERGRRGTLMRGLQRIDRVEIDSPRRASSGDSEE
Method: as §1, §2, §3
(§16) S. aureus and E. coli Topoisomerase IV decatenation kits (Inspiralis, UK) were used. A master mix with a total volume sufficient for the number of reactions to perform was prepared with the following reagents: 5× assay buffer (50 mM HEPES-KOH (pH 7.6), 100 mM potassium glutamate, 10 mM magnesium acetate, 10 mM DTT, 1 mM ATP, 50 μg/ml albumin), kDNA substrate (200 ng/reaction), RNase-DNase free water. Aliquots of this mix were dispensed in each tube, then 10× compound stock solutions or vehicle control (DMSO), were added in each reaction tube.
(§17) Reaction was started with Topoisomerase IV enzyme (0.5 U/reaction) addition.
as §6
(§18) The reaction tubes were gentle vortexed and incubated 30 minutes at 37° C. Each reaction was stopped by adding 30 μl of Stop Buffer and 30 μl of chloroform/isoamyl alcohol (24/1), briefly vortexed for 5-10 seconds and centrifuged at 20000×g for 2 minutes. Samples taken from the upper phase were loaded into 1% agarose gel and subjected to electrophoresis for 1 hour at 80V constant voltage in TAE (40 mM Tris-acetate, 2 mM EDTA).
(§19) Data acquisition and analysis. Due to the high molecular mass, kDNA could not enter an agarose gel under normal electrophoresis conditions, but remained in the wells. In the presence of Topo IV topoisomerase mini-circles (2.5 Kb) were released from kDNA by decatenation and were quickly and easily resolved in the gel at relatively high voltages.
(§20) Bands were visualized by ethidium bromide staining (dil 1:20000) for 30 minutes followed by destaining in distilled water for 10 minutes.
(§21) For single concentration screening assay, in order to evaluate the compounds activity on the enzymes, the bands of decatenated DNAs in the gel were photographed by a digital imaging system ImageQuant LAS 4000 (GE Healthcare) according to manufacturer's instructions.
as §11, §12, §13, §14, §15

S. aureus DNA gyrase = target: T3, S. aureus DNA gyrase (Staphylococcus aureus, UniProt P0A0K8+P20831); experiment: DNA gyrase supercoiling assay (S. aureus); settings: for inhibition at 50 µM: S. aureus, conc. 50 μM, n/a = not active
T3 construct: purchased Inspiralis, UK
T3 sequence (P0A0K8 whole entry): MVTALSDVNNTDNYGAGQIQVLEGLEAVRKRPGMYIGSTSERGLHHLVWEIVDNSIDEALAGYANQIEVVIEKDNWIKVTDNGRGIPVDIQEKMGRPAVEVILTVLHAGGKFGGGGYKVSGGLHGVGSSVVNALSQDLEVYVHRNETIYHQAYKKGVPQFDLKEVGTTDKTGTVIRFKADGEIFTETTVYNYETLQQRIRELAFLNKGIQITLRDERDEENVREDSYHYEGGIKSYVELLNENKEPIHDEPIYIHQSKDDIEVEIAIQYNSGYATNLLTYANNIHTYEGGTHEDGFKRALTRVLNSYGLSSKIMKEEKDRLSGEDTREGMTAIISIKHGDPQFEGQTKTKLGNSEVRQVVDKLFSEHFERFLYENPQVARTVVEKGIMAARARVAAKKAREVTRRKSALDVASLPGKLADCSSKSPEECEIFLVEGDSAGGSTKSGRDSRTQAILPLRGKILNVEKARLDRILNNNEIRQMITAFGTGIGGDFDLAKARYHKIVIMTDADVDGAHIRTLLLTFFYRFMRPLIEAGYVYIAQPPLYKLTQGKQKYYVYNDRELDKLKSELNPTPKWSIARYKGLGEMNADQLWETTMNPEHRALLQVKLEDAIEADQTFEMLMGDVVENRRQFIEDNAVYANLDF
T3 sequence (P20831 whole entry): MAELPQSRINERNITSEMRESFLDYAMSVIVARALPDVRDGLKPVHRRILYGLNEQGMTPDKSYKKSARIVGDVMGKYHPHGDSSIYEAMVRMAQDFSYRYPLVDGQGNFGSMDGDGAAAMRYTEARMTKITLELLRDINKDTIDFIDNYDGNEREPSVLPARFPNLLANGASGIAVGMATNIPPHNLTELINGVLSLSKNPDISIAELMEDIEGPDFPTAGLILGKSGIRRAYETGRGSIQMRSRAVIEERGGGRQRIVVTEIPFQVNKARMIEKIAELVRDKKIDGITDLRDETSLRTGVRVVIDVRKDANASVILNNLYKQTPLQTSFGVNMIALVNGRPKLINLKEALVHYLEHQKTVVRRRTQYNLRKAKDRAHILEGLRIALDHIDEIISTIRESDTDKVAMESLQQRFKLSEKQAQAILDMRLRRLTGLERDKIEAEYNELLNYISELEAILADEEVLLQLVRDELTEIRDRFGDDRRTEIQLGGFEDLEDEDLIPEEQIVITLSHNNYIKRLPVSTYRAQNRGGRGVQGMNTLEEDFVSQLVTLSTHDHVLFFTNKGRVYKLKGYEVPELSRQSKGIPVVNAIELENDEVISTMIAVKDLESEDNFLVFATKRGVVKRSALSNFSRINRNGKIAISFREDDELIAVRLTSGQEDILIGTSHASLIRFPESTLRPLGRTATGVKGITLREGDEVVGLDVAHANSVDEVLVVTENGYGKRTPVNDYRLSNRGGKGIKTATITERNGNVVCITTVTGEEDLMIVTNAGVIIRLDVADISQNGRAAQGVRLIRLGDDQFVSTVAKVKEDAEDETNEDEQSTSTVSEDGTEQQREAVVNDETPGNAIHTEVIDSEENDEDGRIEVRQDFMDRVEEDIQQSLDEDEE
Method: as §1, §2, §3, §4, §5, §6, §7, §8, §9, §10, §11, §12, §13, §14, §15

[1] = target: T4, S. aureus Topoisomerase IV (Staphylococcus aureus, UniProt P0C1S7+P0C1U9); experiment: Topoisomerase IV decatenation assay (S. aureus); settings: for inhibition at 50 µM: read-out: % inhibition Topo IV
T4 construct: purchased Inspiralis, UK
Method: as §1, §2, §3, §16, §17, §6, §18, §19, §20, §21, §11, §12, §13, §14, §15

[2] = S. aureus, concentration-response curve, eight half-log concentrations 0.1 to 300 μM, read-out: IC50 Topo IV
[3] = S. aureus, conc. 50 μM, n/a = not active

T1 sequence (P0AES4 whole entry, one chain of several): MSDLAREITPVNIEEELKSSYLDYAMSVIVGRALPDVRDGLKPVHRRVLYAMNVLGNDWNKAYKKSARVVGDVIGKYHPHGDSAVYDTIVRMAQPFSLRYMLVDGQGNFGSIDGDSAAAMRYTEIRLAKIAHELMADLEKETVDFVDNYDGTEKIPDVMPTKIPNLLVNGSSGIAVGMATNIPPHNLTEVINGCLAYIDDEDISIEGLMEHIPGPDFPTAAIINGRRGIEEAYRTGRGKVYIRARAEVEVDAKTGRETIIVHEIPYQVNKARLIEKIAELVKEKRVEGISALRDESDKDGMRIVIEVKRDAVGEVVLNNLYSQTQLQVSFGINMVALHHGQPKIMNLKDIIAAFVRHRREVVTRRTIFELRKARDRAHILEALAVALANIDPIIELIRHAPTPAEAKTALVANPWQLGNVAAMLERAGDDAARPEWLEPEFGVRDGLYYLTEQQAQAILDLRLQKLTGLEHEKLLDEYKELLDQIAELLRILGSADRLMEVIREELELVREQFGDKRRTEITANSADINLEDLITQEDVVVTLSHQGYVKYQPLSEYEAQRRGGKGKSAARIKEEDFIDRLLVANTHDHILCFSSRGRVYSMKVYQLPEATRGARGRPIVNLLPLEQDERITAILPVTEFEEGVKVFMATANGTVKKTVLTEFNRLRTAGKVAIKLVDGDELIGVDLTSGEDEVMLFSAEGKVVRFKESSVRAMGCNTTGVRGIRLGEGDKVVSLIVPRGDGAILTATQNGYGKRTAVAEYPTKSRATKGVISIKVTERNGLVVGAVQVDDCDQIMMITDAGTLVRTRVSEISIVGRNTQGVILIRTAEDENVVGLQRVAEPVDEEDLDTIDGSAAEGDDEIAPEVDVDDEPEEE

| SMILES | IC50 (E. coli DNA gyrase) | inhibition at 50 µM (E. coli DNA gyrase) | IC50 (E. coli Topoisomerase IV) | inhibition at 50 µM (E. coli Topoisomerase IV) | IC50 (S. aureus DNA gyrase) | inhibition at 50 µM (S. aureus DNA gyrase) | IC50 [1, 2] | inhibition at 50 µM [1] | IC50 [1] | inhibition at 50 µM [1, 3] |
| --- | --- | --- | --- | --- | --- | --- | --- | --- | --- | --- |
| O=c1oc2ccccc2c2[nH]c(C(O)CN3CCN(c4nccc5ccc(F)cc45)CC3)nc12 (stereo not drawn) [Compound 152, 2-{2-[4-(7-fluoroisoquinolin-1-yl)piperazin-1-yl]-1-hydroxyethyl}[1]benzopyrano[3,4-d]imidazol-4(1H)-one hydrochloride] | 660 nM | 88% | 850 nM | 100% | 310 nM | 100% | 530 nM | 88% | – | – |
| O=c1oc2ccccc2c2[nH]c(CNC3CCN(c4nccc5ccc(F)cc45)CC3)c(C(F)(F)F)c12 [Compound 153, 2-({[1-(7-fluoroisoquinolin-1-yl)piperidin-4-yl]amino}methyl)-3-(trifluoromethyl)[1]benzopyrano[4,3-b]pyrrol-4(1H)-one] | 1420 nM | 72% | 1340 nM | 50% | 490 nM | 100% | – | – | 2300 nM | 61% |
| O=c1nc(NCC(O)CN2CCN(c3nc(F)cc4ccc(OC(F)(F)F)cc34)CC2)c2cc(F)ccc2o1 (stereo not drawn) [Compound 155, 6-fluoro-4-[(3-{4-[3-fluoro-7-(trifluoromethoxy)isoquinolin-1-yl]piperazin-1-yl}-2-hydroxypropyl)amino]-2H-1,3-benzoxazin-2-one] | 6310 nM | 60% | – | 0% | 8740 nM | 50% | 7210 nM | – | – | 50% |
| O=c1nc(NCC(O)CN2CCN(c3nccc4nccnc34)CC2)c2cc(F)ccc2o1 (stereo not drawn) [Compound 156, 6-fluoro-4-((2-hydroxy-3-(4-(pyrido[3,4-b]pyrazin-5-yl)piperazin-1-yl)propyl)amino)-2H-benzo[e][1,3]oxazin-2-one] | 2740 nM | 78% | 640 nM | 91% | 1760 nM | 89% | 1250 nM | – | – | 86% |
| NC(CN1CCN(c2nccc3ccc(F)cc23)CC1)c1nc2c(=O)oc3ccccc3c2[nH]1 (stereo not drawn) [Compound 158, 2-{1-amino-2-[4-(7-fluoroisoquinolin-1-yl)piperazin-1-yl]ethyl}[1]benzopyrano[3,4-d]imidazol-4(1H)-one hydrochloride] | 1860 nM | 95% | 920 nM | 97% | 860 nM | 100% | 2130 nM | 100% | – | – |
| O=CNC(CN1CCN(c2nccc3ccc(F)cc23)CC1)c1nc2c(=O)oc3ccccc3c2[nH]1 (stereo not drawn) [Compound 159, N-{2-[4-(7-fluoroisoquinolin-1-yl)piperazin-1-yl]-1-(4-oxo-1,4-dihydro[1]benzopyrano[3,4-d]imidazol-2-yl)ethyl}formamide hydrochloride] | 1650 nM | 94% | 1040 nM | 98% | 510 nM | 100% | 1090 nM | 100% | – | – |
| O=c1nc(NCC(O)CN2CCN(c3nccc4ncc(F)cc34)CC2)c2cc(F)ccc2o1 (stereo not drawn) [Compound 162, 6-fluoro-4-({3-[4-(3-fluoro-1,6-naphthyridin-5-yl)piperazin-1-yl]-2-hydroxypropyl}amino)-2H-1,3-benzoxazin-2-one] | 4850 nM | 95% | 950 nM | 100% | 880 nM | 100% | 310 nM | – | – | 100% |
| O=c1nc(NCC(O)CN2CCN(c3nccc4ncc(C(F)(F)F)cc34)CC2)c2cc(F)ccc2o1 (stereo not drawn) [Compound 163, 6-fluoro-4-[(2-hydroxy-3-{4-[3-(trifluoromethyl)-1,6-naphthyridin-5-yl]piperazin-1-yl}propyl)amino]-2H-1,3-benzoxazin-2-one] | 4400 nM | 80% | 9890 nM | 90% | 82700 nM | 30% | 1220 nM | – | – | 100% |
| O=c1cc(NCC(O)CN2CCN(c3nccc4ncccc34)CC2)c2cc(F)ccc2o1 (stereo not drawn) [Compound 166, 6-fluoro-4-({2-hydroxy-3-[4-(1,6-naphthyridin-5-yl)piperazin-1-yl]propyl}amino)-2H-1-benzopyran-2-one] | 150 nM | 80% | 200 nM | 90% | 1130 nM | 70% | 300 nM | 97% | – | – |
| COC1CN(c2nccc3ccc(F)cc23)CCC1NCc1cc2c(=O)oc3ccccc3c2[nH]1 (stereo not drawn) [Compound 171, 2-({[1-(7-fluoroisoquinolin-1-yl)-3-methoxypiperidin-4-yl]amino}methyl)[1]benzopyrano[4,3-b]pyrrol-4(1H)-one] | – | 93% | – | 97% | – | 100% | – | – | – | 72% |
| O=c1oc2ccccc2c2[nH]c(CNC3CCN(c4nccc5ccc(F)cc45)CC3F)cc12 (stereo not drawn) [Compound 172, 2-({[3-fluoro-1-(7-fluoroisoquinolin-1-yl)piperidin-4-yl]amino}methyl)[1]benzopyrano[4,3-b]pyrrol-4(1H)-one] | – | 94% | – | 89% | – | 64% | – | – | – | 39% |
| CC1CN(c2nccc3ccc(F)cc23)CCC1NCc1cc2c(=O)oc3ccccc3c2[nH]1 (stereo not drawn) [Compound 177, 2-({[1-(7-fluoroisoquinolin-1-yl)-3-methylpiperidin-4-yl]amino}methyl) [1]benzopyrano[4,3-b]pyrrol-4(1H)-one] | – | 77% | – | 74% | – | 98% | – | – | – | 14% |
| O=c1oc2ccccc2c2[nH]c(CNC3CCN(c4nccc5ccc(F)cc45)CC3O)cc12 (stereo not drawn) [Compound 186, 2-({[1-(7-fluoroisoquinolin-1-yl)-3-hydroxypiperidin-4-yl]amino}methyl)[1]benzopyrano[4,3-b]pyrrol-4(1H)-one] | – | 70% | – | 54% | – | 100% | – | – | – | 87% |
